The test system of test [1] is EL-4 (Lymphoma, murine) cells. Nature of the test: Inhibiting activity on angiogenesis in vitro: EL-4 cells, MTT method. Type of test: cell-based. Particulars: Mus musculus, EL4, 72 h, read-out: IC50, EL-4. How it is done: (§1) The compound sample dissolved in DMSO was diluted to ten times by using MEM culture medium (in case of CPAE cells) without adding FBS (Fetal Bovine Serum), and RPMI 1640 culture (in case of EL-4 and P388D1 cells), and 20 μl of the solution was poured to each well of 96 well plate in triplicate for every concentration gradient. Then, each cell suspension was prepared and poured to examine the inhibiting activity on angiogenesis.
In case of EL-4 (Lymphoma, murine) and P388D1 (leukemia, mouse) cells, a cell suspension having 1×10^4 cells/ml was prepared with RPMI1640 (+10% FBS) culture medium, and after pouring the suspension (180 μl) to each well of 96 well plate, they were cultured in a CO2 incubator (5% CO2, humidified) for 3 days.

Test [2] relates to CPAE (Calf Pulmonary Artery Endothelial) cells. The experiment in a line: Inhibiting activity on angiogenesis in vitro: CPAE cells, SRB method. The test is classed as cell-based. Particulars: Bos taurus, Endothelial cell, 96 h, 4 days, 10% FBS + ECGS. The method, then: as §1
In case of CPAE (Calf Pulmonary Artery Endothelial) cells (used after 2-3 subcultures), a cell suspension having 7×10^3 cells/ml was prepared with MEM (+10% FBS+50 μg/ml ECGS) medium, and after pouring the suspension (180 μl) to each well of 96 well plate, they were cultured in a CO2 incubator (5% CO2, humidified) for 4 days.

The mark [3] stands for this setting: EL-4 cells, 3 days, MTT method, 10% FBS.

Values after ≈ are worked out from the molar mass of the structure shown. Read-outs that look alike come from different tables or passages of the source.

Regarding `CO[C@@H]1[C@H](OC(=O)/C=C/C=C/C=C/C=C/C(=O)O)CC[C@]2(CO2)[C@H]1[C@@]1(C)O[C@@H]1CC=C(C)C` [Fumagillin, fumagillin, reference compound], in test [1], the half-maximal inhibitory concentration (IC50) was found to be 1.6 ng/mL (≈ 3.49 nM). As to `CO[C@@H]1[C@H](OC(=O)/C=C/c2ccc(OC(C)=O)cc2)CC[C@]2(CO2)[C@H]1[C@@]1(C)O[C@@H]1CC=C(C)C` [Example 9, O-(4-acetoxycinnamoyl)fumagillol], the figures for the 50% inhibitory concentration (IC50) in test [1] (setting [3]) and in test [2] were 0.0066 ng/mL (≈ 0.014 nM) and 0.0044 ng/mL, respectively.

Consider `COc1ccc(/C=C/C(=O)O[C@@H]2CC[C@](O)(CCl)[C@@H]([C@@]3(C)O[C@@H]3CC=C(C)C)[C@@H]2OC)cc1` [Example 13, 4-(4-methoxycinnamoyl)oxy-2-(1,2-epoxy-1,5-dimethyl-4-hexenyl)-3-methoxy-1-chloromethyl-1-cyclohexanol], for which the 50% inhibitory concentration (IC50) was 0.0016 ng/mL (≈ 0.00334 nM) in test [1] (setting [3]) and 0.0011 ng/mL in test [2]. Regarding `CO[C@@H]1[C@H](OC(=O)/C=C/c2ccc(N(C)C)cc2)CC[C@]2(CO2)[C@H]1[C@@]1(C)O[C@@H]1CC=C(C)C` [Example 14, O-(4-dimethylaminocinnamoyl)fumagillol], the half-inhibitory concentration (IC50) in test [1] (setting [3]) stood at 0.00049 ng/mL (≈ 0.00108 nM); in test [2], 0.00063 ng/mL.

Take `COc1cc(/C=C/C(=O)O[C@@H]2CC[C@]3(CO3)[C@@H]([C@@]3(C)O[C@@H]3CC=C(C)C)[C@@H]2OC)cc(OC)c1OC(C)=O` [Example 11, O-(4-acetoxy-3,5-dimethoxycinnamoyl)fumagillol]: the IC50 in test [1] (setting [3]) is 0.00032 ng/mL (≈ 0.000603 nM); in test [2], 0.00021 ng/mL.

On to `CO[C@@H]1[C@H](OC(=O)/C=C/c2ccc([N+](=O)[O-])cc2)CC[C@]2(CO2)[C@H]1[C@@]1(C)O[C@@H]1CC=C(C)C` [Example 7, O-(4-nitrocinnamoyl)fumagillol], for which the IC50 in test [1] (setting [3]) was found to be 0.054 ng/mL (≈ 0.118 nM); in test [2] it was 0.012 ng/mL. The corresponding values for `COc1ccc(/C=C/C(=O)O[C@@H]2CC[C@]3(CO3)[C@@H]([C@@]3(C)O[C@@H]3CC=C(C)C)[C@@H]2OC)cc1` [Example 2, O-(4-methoxycinnamoyl)fumagillol] are 0.0022 ng/mL (≈ 0.00497 nM) and 0.0017 ng/mL.

On to `COc1cc(/C=C/C(=O)O[C@@H]2CC[C@](O)(CCl)[C@@H]([C@@]3(C)O[C@@H]3CC=C(C)C)[C@@H]2OC)cc(OC)c1OC` [Example 5, 4-(3,4,5-trimethoxycinnamoyl)oxy-2-(1,2-epoxy-1,5-dimethyl-4-hexenyl)-3-methoxy-1-chloromethyl-1-cyclohexanol], for which the results for the half-inhibitory concentration (IC50) in test [1] (setting [3]) and in test [2] were 1.1e-05 ng/mL (≈ 2.04e-05 nM) and 4.8e-05 ng/mL, respectively.

`CO[C@@H]1[C@H](OC(=O)/C=C/c2ccc(N)cc2)CC[C@]2(CO2)[C@H]1[C@@]1(C)O[C@@H]1CC=C(C)C` [Example 15, O-(4-aminocinnamoyl)fumagillol]: the IC50 was 0.0043 ng/mL (≈ 0.0101 nM) in test [1] (setting [3]) and 0.0025 ng/mL in test [2]. On to `CO[C@@H]1[C@H](OC(=O)/C=C/c2ccc3c(c2)OCO3)CC[C@]2(CO2)[C@H]1[C@@]1(C)O[C@@H]1CC=C(C)C` [Example 20, O-(3,4-methylenedioxycinnamoyl)fumagillol], for which the 50% inhibitory concentration (IC50) in test [1] (setting [3]) was found to be 0.00022 ng/mL (≈ 0.000482 nM); in test [2], 0.00012 ng/mL. In the case of `CO[C@@H]1[C@H](OC(=O)/C=C/c2ccc(N(C)C)cc2)CC[C@](O)(CCl)[C@H]1[C@@]1(C)O[C@@H]1CC=C(C)C` [Example 25, 4-(4-dimethylaminocinnamoyl)oxy-2-(1,2-epoxy-1,5-dimethyl-4-hexenyl)-3-methoxy-1-chloromethyl-1-cyclohexanol], the IC50 in test [1] (setting [3]) was determined as 0.00041 ng/mL (≈ 0.000833 nM); in test [2] it was 0.00033 ng/mL. In the case of `CO[C@@H]1[C@H](OC(=O)/C=C/c2ccc(OCCN(C)C)cc2)CC[C@]2(CO2)[C@H]1[C@@]1(C)O[C@@H]1CC=C(C)C` [Example 18, O-(4-dimethylaminoethoxycinnamoyl)fumagillol], the half-maximal inhibitory concentration (IC50) in test [1] (setting [3]) is 0.00041 ng/mL (≈ 0.000821 nM); in test [2], 0.00052 ng/mL. For the compound `COc1cc(N)c(/C=C/C(=O)O[C@@H]2CC[C@]3(CO3)[C@@H]([C@@]3(C)O[C@@H]3CC=C(C)C)[C@@H]2OC)cc1OC` [Example 21, O-(3,4-dimethoxy-6-aminocinnamoyl)fumagillol], the 50% inhibitory concentration (IC50) in test [1] (setting [3]) is 0.00082 ng/mL (≈ 0.00168 nM); in test [2], 0.00083 ng/mL.

Turning to `COc1ccc(/C=C/C(=O)O[C@@H]2CC[C@]3(CO3)[C@@H]([C@@]3(C)O[C@@H]3CC=C(C)C)[C@@H]2OC)cc1CN(C)C` [Example 19, O-(3-dimethylaminomethyl-4-methoxycinnamoyl)fumagillol], the half-maximal inhibitory concentration (IC50) in test [1] (setting [3]) amounted to 0.00057 ng/mL (≈ 0.00114 nM); in test [2], 0.00032 ng/mL.

Consider `COc1cc(/C=C/CO[C@@H]2CC[C@]3(CO3)[C@@H]([C@@]3(C)O[C@@H]3CC=C(C)C)[C@@H]2OC)cc(OC)c1OC` [Example 17, O-(3,4,5-trimethoxycinnamyl)fumagillol], for which the concentration for half-maximal inhibition (IC50) in test [1] (setting [3]) is 0.0015 ng/mL (≈ 0.00307 nM); in test [2] it was 0.0012 ng/mL. The corresponding values for `COc1cc(/C=C/C(=O)O[C@@H]2CC[C@]3(CO3)[C@@H]([C@@]3(C)O[C@@H]3CC=C(C)C)[C@@H]2OC)cc(OC)c1O` [Example 12, O-(3,5-dimethoxy-4-hydroxycinnamoyl)fumagillol] are 0.00069 ng/mL (≈ 0.00141 nM) and 0.00073 ng/mL. For `COc1cc(/C=C/C(=O)O[C@@H]2CC[C@]3(CO3)[C@@H]([C@@]3(C)O[C@@H]3CC=C(C)C)[C@@H]2OC)cc(OC)c1OC` [Example 3, O-(3,4,5-trimethoxycinnamoyl)fumagillol], the IC50 in test [1] is 1.1e-05 ng/mL (≈ 2.19e-05 nM).

As to `CO[C@@H]1[C@H](OC(=O)/C=C/c2ccc(Cl)cc2)CC[C@]2(CO2)[C@H]1[C@@]1(C)O[C@@H]1CC=C(C)C` [Example 4, O-(chlorocinnamoyl)fumagillol], the results for the IC50 in test [1] (setting [3]) and in test [2] were 0.84 ng/mL (≈ 1.88 nM) and 0.99 ng/mL, respectively.
